From PubChem BioAssay AID1845217 (Molecular Pharmacology Branch, DTP, NCI, 2023)

System: VA-ES-BJ tumor spheroid viability
Experiment: Anticancer human tumor VA-ES-BJ cell line growth inhibition;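 also: spheroids exposed to compounds for seven days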;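 as to viability, T/C: percent of DMSO vehicle control viability so 100% = untreated growth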
Conditions: spheroids with HUVEC and MSC; for IC50: curve of first compound; for viability, T/C: stronger effect = lower value
In short: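 Complex spheroids of malignant cells with endothelial cells and mesenchymal stem cells; agents alone or combined, from near clinical Cmax (or 10 microM if unknown) down in half-log steps, 0.25% DMSO final.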

[1] = second compound 30 pM, first compound 0.0316 µM
[2] = second compound 30 pM, first compound 0.1 µM
[3] = second compound 30 pM, first compound 0.316 µM
[4] = second compound 30 pM, first compound 1 µM
[5] = second compound 30 pM, first compound 3.16 µM
[6] = second compound 30 pM, first compound 10 µM
[7] = second compound 94.9 pM, first compound 0.0316 µM
[8] = second compound 94.9 pM, first compound 0.1 µM
[9] = second compound 94.9 pM, first compound 0.316 µM
[10] = second compound 94.9 pM, first compound 1 µM
[11] = second compound 94.9 pM, first compound 3.16 µM
[12] = second compound 94.9 pM, first compound 10 µM
[13] = second compound 0.0003 µM, first compound 0.0316 µM
[14] = second compound 0.0003 µM, first compound 0.1 µM
[15] = second compound 0.0003 µM, first compound 0.316 µM
[16] = second compound 0.0003 µM, first compound 1 µM
[17] = second compound 0.0003 µM, first compound 3.16 µM
[18] = second compound 0.0003 µM, first compound 10 µM
[19] = second compound 0.000949 µM, first compound 0.0316 µM
[20] = second compound 0.000949 µM, first compound 0.1 µM
[21] = second compound 0.000949 µM, first compound 0.316 µM
[22] = second compound 0.000949 µM, first compound 1 µM
[23] = second compound 0.000949 µM, first compound 3.16 µM
[24] = second compound 0.000949 µM, first compound 10 µM
[25] = second compound 0.003 µM, first compound 0.0316 µM
[26] = second compound 0.003 µM, first compound 0.1 µM
[27] = second compound 0.003 µM, first compound 0.316 µM
[28] = second compound 0.003 µM, first compound 1 µM
[29] = second compound 0.003 µM, first compound 3.16 µM
[30] = second compound 0.003 µM, first compound 10 µM

CC(C)n1c(=O)n(C)c2cnc3cc(F)c(-c4ccc(OCCCN5CCCCC5)nc4)cc3c21 + COc1cc2c(cc1O)CCNC21CSC2c3c(OC(C)=O)c(C)c4c(c3C(COC1=O)N1C(O)C3Cc5cc(C)c(OC)c(O)c5C(C21)N3C)OCO4 gave an IC50 (second compound 30 pM) of 5850 nM, an IC50 (second compound 94.9 pM) of under 31.6 nM and an IC50 (second compound 0.0003 µM) of under 31.6 nM. For the same compound, the IC50 (second compound 0.000949 µM) was under 31.6 nM, the IC50 (second compound 0.003 µM) was under 31.6 nM and the viability, T/C [1] was 76.2%. For the same compound, the viability, T/C [2] was 76.6%, the viability, T/C [3] was 75.2% and the viability, T/C [4] was 81%. For the same compound, the viability, T/C [5] was 79.1%, the viability, T/C [6] was 26% and the viability, T/C [7] was 50.3%. For the same compound, the viability, T/C [8] was 45.4%, the viability, T/C [9] was 46.6% and the viability, T/C [10] was 54.1%. The viability, T/C [11] was 47.8%, the viability, T/C [12] was 28.6% and the viability, T/C [13] was 25.9%. The viability, T/C [14] was 25.1%, the viability, T/C [15] was 30.5% and the viability, T/C [16] was 31.5%. The viability, T/C [17] was 19.7%, the viability, T/C [18] was 13.2% and the viability, T/C [19] was 1.74%. For the same compound, the viability, T/C [20] was 1.58%, the viability, T/C [21] was 1.8% and the viability, T/C [22] was 1.79%. The viability, T/C [23] was 1.02%, the viability, T/C [24] was 1.02% and the viability, T/C [25] was 1.5%. It also gave a viability, T/C [26] of 1.42%, a viability, T/C [27] of 1.59% and a viability, T/C [28] of 0.72%. For the same compound, the viability, T/C [29] was 0.45% and the viability, T/C [30] was 0.56%.

CC1COCCN1c1cc(-c2ccnn2C)c2ccnc(-c3ccn[nH]3)c2n1 (stereo not given) + COc1cc2c(cc1O)CCNC21CSC2c3c(OC(C)=O)c(C)c4c(c3C(COC1=O)N1C(O)C3Cc5cc(C)c(OC)c(O)c5C(C21)N3C)OCO4 showed an IC50 (second compound 30 pM) of under 31.6 nM, an IC50 (second compound 94.9 pM) of under 31.6 nM and an IC50 (second compound 0.0003 µM) of under 31.6 nM. For the same compound, the IC50 (second compound 0.000949 µM) was under 31.6 nM, the IC50 (second compound 0.003 µM) was under 31.6 nM and the viability, T/C [1] was 38%. It also gave a viability, T/C [2] of 19.5%, a viability, T/C [3] of 8.68% and a viability, T/C [4] of 5.69%. It also gave a viability, T/C [5] of 4.98%, a viability, T/C [6] of 4.49% and a viability, T/C [7] of 26%. The viability, T/C [8] was 21.3%, the viability, T/C [9] was 8.87% and the viability, T/C [10] was 4.99%. The viability, T/C [11] was 5.01%, the viability, T/C [12] was 4.7% and the viability, T/C [13] was 16.9%. For the same compound, the viability, T/C [14] was 12%, the viability, T/C [15] was 8.21% and the viability, T/C [16] was 5.23%. It also gave a viability, T/C [17] of 5.32%, a viability, T/C [18] of 5.04% and a viability, T/C [19] of 2.61%. The viability, T/C [20] was 2.73%, the viability, T/C [21] was 2.01% and the viability, T/C [22] was 1.53%. For the same compound, the viability, T/C [23] was 0.5%, the viability, T/C [24] was 0.13% and the viability, T/C [25] was 1.26%. The viability, T/C [26] was 1.04%, the viability, T/C [27] was 0.77% and the viability, T/C [28] was 1%. For the same compound, the viability, T/C [29] was 0.35% and the viability, T/C [30] was 0.56%.

COc1ccc([C@@H](O)c2cc(-c3ncnc4cc(N5CCOCC5)ccc34)c(F)cc2Cl)nn1 + COc1cc2c(cc1O)CCNC21CSC2c3c(OC(C)=O)c(C)c4c(c3C(COC1=O)N1C(O)C3Cc5cc(C)c(OC)c(O)c5C(C21)N3C)OCO4 showed an IC50 (second compound 30 pM) of 857 nM, an IC50 (second compound 94.9 pM) of 510 nM and an IC50 (second compound 0.0003 µM) of 102 nM. The IC50 (second compound 0.000949 µM) was under 31.6 nM, the IC50 (second compound 0.003 µM) was under 31.6 nM and the viability, T/C [1] was 124%. The viability, T/C [2] was 112%, the viability, T/C [3] was 90.3% and the viability, T/C [4] was 43.8%. For the same compound, the viability, T/C [5] was 15.9%, the viability, T/C [6] was 10.5% and the viability, T/C [7] was 111%. It also gave a viability, T/C [8] of 108%, a viability, T/C [9] of 64.1% and a viability, T/C [10] of 29.1%. The viability, T/C [11] was 15%, the viability, T/C [12] was 11.4% and the viability, T/C [13] was 59.6%. It also gave a viability, T/C [14] of 51.3%, a viability, T/C [15] of 30.5% and a viability, T/C [16] of 14%. The viability, T/C [17] was 3.86%, the viability, T/C [18] was 0.36% and the viability, T/C [19] was 3.29%. The viability, T/C [20] was 3.11%, the viability, T/C [21] was 1.76% and the viability, T/C [22] was 0.36%. For the same compound, the viability, T/C [23] was 1.07%, the viability, T/C [24] was 2.57% and the viability, T/C [25] was 2.08%. It also gave a viability, T/C [26] of 3.06%, a viability, T/C [27] of 2.71% and a viability, T/C [28] of 4.43%. The viability, T/C [29] was 5.13% and the viability, T/C [30] was 6.09%.

For O=C(c1cc(Cc2n[nH]c(=O)c3ccccc23)ccc1F)N1CCN(C(=O)C2CC2)CC1 + Cn1nnc2c(C(N)=O)ncn2c1=O, the IC50 (second compound 1 µM) was over 30000 nM, the IC50 (second compound 3.16 µM) was 25400 nM and the IC50 (second compound 10 µM) was 9760 nM. It also gave an IC50 (second compound 31.6 µM) of 3430 nM, an IC50 (second compound 100 µM) of 669 nM and a viability, T/C (second compound 1 µM, first compound 0.0949 µM) of 114%. For the same compound, the viability, T/C (second compound 1 µM, first compound 0.3 µM) was 110%, the viability, T/C (second compound 1 µM, first compound 0.949 µM) was 111% and the viability, T/C (second compound 1 µM, first compound 3 µM) was 110%. For the same compound, the viability, T/C (second compound 1 µM, first compound 9.49 µM) was 75%, the viability, T/C (second compound 1 µM, first compound 30 µM) was 58.5% and the viability, T/C (second compound 3.16 µM, first compound 0.0949 µM) was 103%. The viability, T/C (second compound 3.16 µM, first compound 0.3 µM) was 110%, the viability, T/C (second compound 3.16 µM, first compound 0.949 µM) was 96.8% and the viability, T/C (second compound 3.16 µM, first compound 3 µM) was 106%. The viability, T/C (second compound 3.16 µM, first compound 9.49 µM) was 78.8%, the viability, T/C (second compound 3.16 µM, first compound 30 µM) was 45.2% and the viability, T/C (second compound 10 µM, first compound 0.0949 µM) was 110%. The viability, T/C (second compound 10 µM, first compound 0.3 µM) was 113%, the viability, T/C (second compound 10 µM, first compound 0.949 µM) was 111% and the viability, T/C (second compound 10 µM, first compound 3 µM) was 87.4%. The viability, T/C (second compound 10 µM, first compound 9.49 µM) was 51.9%, the viability, T/C (second compound 10 µM, first compound 30 µM) was 17% and the viability, T/C (second compound 31.6 µM, first compound 0.0949 µM) was 102%. For the same compound, the viability, T/C (second compound 31.6 µM, first compound 0.3 µM) was 112%, the viability, T/C (second compound 31.6 µM, first compound 0.949 µM) was 100% and the viability, T/C (second compound 31.6 µM, first compound 3 µM) was 54%. The viability, T/C (second compound 31.6 µM, first compound 9.49 µM) was 16.8%, the viability, T/C (second compound 31.6 µM, first compound 30 µM) was 8.16% and the viability, T/C (second compound 100 µM, first compound 0.0949 µM) was 77%. The viability, T/C (second compound 100 µM, first compound 0.3 µM) was 72%, the viability, T/C (second compound 100 µM, first compound 0.949 µM) was 40% and the viability, T/C (second compound 100 µM, first compound 3 µM) was 15.7%. For the same compound, the viability, T/C (second compound 100 µM, first compound 9.49 µM) was 7.74% and the viability, T/C (second compound 100 µM, first compound 30 µM) was 6.29%.
